Key:
Assay in all cases: relative viability (nuclei count vs DMSO), 5 days (fraction); higher = more cells survive
[1] = test system: HCC-366
In short: (§1)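 Relative viability divides the nuclei count in treated wells by that in vehicle wells. Lung cancer cell lines were seeded in 1536-well plates, dosed by pin tool the next day, and fixed and stained after 5 days in one step with final 0.05% Triton X-100, 1% formaldehyde and 1 ug/ml Hoechst. Dosing was a single drug or a fixed anchor-drug dose plus five library-drug doses (not always all listed) in √10 steps, and values are medians of duplicate plates imaged at 4×.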

[2] = test system: HCC-44
In short: as §1

[3] = test system: NCI-H1648
In short: as §1

[4] = test system: NCI-H522
In short: as §1

[5] = test system: NCI-H1437
In short: as §1

[6] = test system: A549
In short: as §1

Structure (SMILES)	relative viability ([1]; first compound 0.01 µM)	relative viability ([1]; first compound 0.03162 µM)	relative viability ([1]; first compound 0.1 µM)	relative viability ([1]; first compound 0.3162 µM)	relative viability ([1]; first compound 1 µM)	relative viability ([2]; first compound 0.01 µM)	relative viability ([2]; first compound 0.03162 µM)	relative viability ([2]; first compound 0.1 µM)	relative viability ([2]; first compound 0.3162 µM)	relative viability ([2]; first compound 1 µM)	relative viability ([3]; first compound 0.01 µM)	relative viability ([3]; first compound 0.03162 µM)	relative viability ([3]; first compound 0.1 µM)	relative viability ([3]; first compound 0.3162 µM)	relative viability ([3]; first compound 1 µM)	relative viability ([4]; first compound 0.01 µM)	relative viability ([4]; first compound 0.03162 µM)	relative viability ([4]; first compound 0.1 µM)	relative viability ([4]; first compound 0.3162 µM)	relative viability ([4]; first compound 1 µM)	relative viability ([5]; first compound 0.01 µM)	relative viability ([5]; first compound 0.03162 µM)	relative viability ([5]; first compound 0.1 µM)	relative viability ([5]; first compound 0.3162 µM)	relative viability ([5]; first compound 1 µM)	relative viability ([6]; first compound 0.01 µM)	relative viability ([6]; first compound 0.03162 µM)	relative viability ([6]; first compound 0.1 µM)	relative viability ([6]; first compound 0.3162 µM)	relative viability ([6]; first compound 1 µM)
NC(=O)Nc1cc(-c2cccc(F)c2)sc1C(=O)N[C@H]1CCCNC1 [AZD7762] + CC(=O)c1c(C)c2cnc(Nc3ccc(N4CCNCC4)cn3)nc2n(C2CCCC2)c1=O [Palbociclib] (partner 0.5 µM)	0.478	0.387	0.407	0.28	0.106	1.02	0.923	0.965	0.93	1.04	0.394	0.245	0.277	0.27	0.283	1.07	0.987	0.999	1.09	1	0.357	0.293	0.379	0.41	0.35					
NC(=O)Nc1cc(-c2cccc(F)c2)sc1C(=O)N[C@H]1CCCNC1 [AZD7762] + Nc1nc2[nH]cc(CCc3ccc(C(=O)N[C@@H](CCC(=O)O)C(=O)O)cc3)c2c(=O)[nH]1 [Pemetrexed] (partner 0.2 µM)	0.195	0.11	0.0981	0.0668	0.0716	0.608	0.548	0.534	0.451	0.358	0.644	0.646	0.704	0.553	0.631	1.03	1.05	0.862	0.943	0.791	0.298	0.261	0.229	0.206	0.172					
NC(=O)Nc1cc(-c2cccc(F)c2)sc1C(=O)N[C@H]1CCCNC1 [AZD7762] + Nc1ncn([C@H]2C[C@H](O)[C@@H](CO)O2)c(=O)n1 [Decitabine] (partner 2 µM)	0.332	0.407	0.337	0.309	0.154	0.994	0.959	1.01	0.987	1.08	0.512	0.671	0.415	0.462	0.437	0.668	0.709	0.714	0.689	0.686	0.638	0.622	0.721	0.656	0.57	0.305	0.252	0.27	0.281	0.202

Reference: the supplement of paper PMC10307832
